In patent publication US8399514B2, “Treatment for multiple sclerosis” (Biogen Idec MA Inc., priority 2007, dated 2013):

Experiments:
[1] = tested on: Nrf2; experiment: Nrf2 immunohistochemistry of spinal cord tissues in MOG 35-55 induced EAE; type: in vivo; conditions: EAE mice, oral gavage twice a day from day 3 p.i., DMF 5 or 15 mg/kg, MMF 15 mg/kg
Protocol: For induction of EAE, mice received s.c. injections in the flanks and tail base of 50 μg MOG 35-55 peptide in PBS emulsified in an equal volume of complete Freund's adjuvant (CFA) containing Mycobacterium tuberculosis H37RA (Difco, Detroit Mich., USA) at a final concentration of 0.5 mg/ml. Two injections of pertussis toxin (List Biological Laboratories Inc., California, USA; […] i.p) were given on days 0 and 2.
DMF and MMF was diluted in 200 μl 0.08% Methocel/H2O as vehicle and administered by oral gavage starting from day 3 post immunization (p.i) until termination. Each treatment group consisted of 8 animals: vehicle alone as a negative control, 5 mg/kg body weight DMF twice a day, 15 mg/kg body weight DMF twice a day, 15 mg/kg body weight MMF twice a day. The compounds were obtained via Fumapharm AG. Oral gavage was used to ensure exact dosing and to avoid compound degradation.
Spinal cord tissues were fixed in 4% paraformaldehyde and embedded in paraffin. […]
Immunohistochemistry was performed using the Dako autostainer as follows. […] The rabbit anti Nrf2 antibody C-20 (sc-722, Santa Cruz Biotechnology) was added at a 1:250 dilution in Dako Diluent with Background Reducing Components (Dako # S3022) C-20 antibody was detected using the Envision anti rabbit labeled polymer-HRP (Dako #K4003) and DAB (Vector Labs #SK-4100) was used as the chromogenic substrate. […]

[2] = tested on: Nrf2; experiment: Western blot of Nrf2 and NQO1 in DLD1 cells treated with DMF or MMF; type: cell-based, human; conditions: DLD1 cells in culture; 5, 15, or 50 μM; 16 hours
Protocol: Human colon carcinoma DLD1 cells were treated with DMF or MMF at indicated concentrations (5, 15, or 50 μM) for 16 hours, rinsed with PBS, and harvested into reducing SDS sample buffer. The lysates were subjected to SDS PAGE and the separated proteins were electrophoretically transferred onto nitrocellulose membranes for Western blot analysis. To detect Nrf2 and NQO1, the membranes were incubated with the respective primary antibodies overnight at 4° C., washed, and incubated with peroxidase-conjugated secondary antibodies followed by the chemiluminescent peroxidase substrate. Detection of the target protein band luminescence and image acquisition were done using CCD-equipped imaging station Kodak2000R.

[3] = tested on: Nrf2; experiment: RNAi (siRNA Nrf2/Keap1) experiment in DLD1 cells stimulated with DMF, Western blot of Nrf2 and NQO1; type: cell-based, human; conditions: 30 μM DMF for 40 hours
Protocol: DLD1 cells were grown in MEM supplemented with 10% fetal bovine serum. The cells were transfected with the indicated siRNA's using the Lipofectamine reagent (Invitrogen) according to the manufacturer's instructions and 30 hrs later stimulated with 30 μM DMF for 40 hours. The cells were harvested and processed for Western blotting analysis of Nrf2 and NQO1 levels as described in Example 1. Sources and the identity of reagents used in Examples 1 and 2 are specified Table 3 below: […]

| Compound | activation of Nrf2 in vivo (Nrf2 immunostaining, morphometric analysis, FIGS. 3 and 4) [1] | activation of Nrf2 (Nrf2 and NQO1 protein levels, Western blot, FIG. 1) [2] | DMF-induced upregulation of NQO1, dependence on Nrf2 (FIG. 2) ([3]; DLD1 cells transfected with Nrf2 or Keap1 siRNA) | Nrf2 agonism: cellular accumulation of Nrf2 and Nrf2 target gene expression (FIG. 2) ([3]; DLD1 cells) |
| --- | --- | --- | --- | --- |
| COC(=O)/C=C/C(=O)O [MMF] | activation of Nrf2 in vivo | potent activators of Nrf2 |  |  |
| COC(=O)/C=C/C(=O)OC [DMF] | activation of Nrf2 in vivo | potent activators of Nrf2 | upregulation of NQO1 requires Nrf2 | acts as an Nrf2 agonist |
